Consider two compounds from paper PMC9303812, “Asymmetrically Substituted m‐Terphenyl Phosphates Inhibit the Transcription Factor STAT5a” (Chembiochem, 2021).

For one assay, the target named is STAT3 (Homo sapiens, UniProt P40763). In words: Fluorescence polarization (FP) binding assay, STAT3. How it is done: Table S1: Activities of test compounds against STAT5a and STAT5b in FP assays . Experiments were carried out in triplicate (n = 3) unless stated otherwise. n/a: not applicable.
[a]data taken from the literature.[1]
(§1) Ki values were calculated from IC50 values using the published equation.[2] […]
(§2) Table S2: Activities of 12 against STAT5 proteins in FP assays.
(§3) Fluorescence polarization assays
(§4) Fluorescence polarization assays were essentially carried out as previously described.[1] These assays quantitate to which extent a test compound is able to interfere with binding between a STAT protein and a fluorescein-labeled phosphotyrosine-containing peptide, which is known to bind to the SH2 domain of the respective STAT protein. The following protein […]
(§5) concentrations were used: 100 nM for STAT1, 150 nM for STAT3, 30 nM for STAT4, 180 nM for STAT5a, 90 nM for STAT5b and 105 nM for STAT6. All peptides were used at a concentration of 10 nM. The following peptides were used: 5 -carboxyfluorescein -GpYDKPHVL for STAT1; 5-carboxyfluorescein -GpYLPQTV-NH2 for STAT3; 5-carboxyfluorescein-GpYLPQNID-OH for STAT4; 5-carboxyfluorescein-GpYLVLDKW for STAT5a/b, and 5-carboxyfluorescein-GpYVPWQDLI-OH for STAT6. As a buffer system, 10 mM Tris (pH 8.0), 50 mM NaCl, 1 mM EDTA, 1 mM DTT, 0.1 % Nonidet P-40 substitute, and 2 % DMSO in water was used. All compounds tested were incubated for 1 h with the protein. Subsequently, the fluorescein-labeled peptide was added and the fluorescence polarization was measured with an Infinite F500 plate reader (Tecan) after another hour. IC50 values were converted to Ki-values using the published equation.[2]

A further assay addresses T1, STAT4 (Homo sapiens, UniProt Q14765).
T1 sequence (Q14765 1-748): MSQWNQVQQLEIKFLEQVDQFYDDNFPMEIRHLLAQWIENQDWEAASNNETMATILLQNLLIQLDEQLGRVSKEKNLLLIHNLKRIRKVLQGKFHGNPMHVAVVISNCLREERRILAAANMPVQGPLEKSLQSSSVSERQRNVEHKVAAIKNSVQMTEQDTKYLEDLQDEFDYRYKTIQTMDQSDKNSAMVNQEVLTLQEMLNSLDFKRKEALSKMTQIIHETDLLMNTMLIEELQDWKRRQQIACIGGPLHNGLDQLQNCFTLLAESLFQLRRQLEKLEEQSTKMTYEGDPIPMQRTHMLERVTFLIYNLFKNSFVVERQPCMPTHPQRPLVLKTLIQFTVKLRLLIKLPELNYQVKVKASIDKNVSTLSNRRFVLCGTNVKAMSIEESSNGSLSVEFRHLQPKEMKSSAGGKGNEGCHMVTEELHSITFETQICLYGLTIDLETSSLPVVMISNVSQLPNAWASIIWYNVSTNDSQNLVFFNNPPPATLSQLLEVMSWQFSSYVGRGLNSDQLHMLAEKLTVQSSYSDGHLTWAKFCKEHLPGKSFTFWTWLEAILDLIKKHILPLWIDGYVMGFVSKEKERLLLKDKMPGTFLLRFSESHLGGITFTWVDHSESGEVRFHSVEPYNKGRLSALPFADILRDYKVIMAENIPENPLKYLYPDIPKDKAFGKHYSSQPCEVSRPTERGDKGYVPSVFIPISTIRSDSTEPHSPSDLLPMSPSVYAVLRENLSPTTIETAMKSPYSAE
In words: Fluorescence polarization (FP) binding assay, STAT4. How it is done: as §1, §2, §3, §4
as §5, with “equation.[2] […]” for “equation.[2]”
3:2 solution was added . The solution was degassed by applying ultrasonic under vacuum for one minute four times. 14 mg of Pd(PPh3)4 (12 µmol, 5 mol %) were added and the solution was refluxed overnight. After cooling down, the mixture was extracted with ethyl acetate, washed with brine and dried over Na2SO4. The crude product was purified by flash column […]
Method 2: Synthesis of dibenzylphosphate esters
The corresponding phenol (1 eq.) was dissolved in 10 ml/mmol MeCN or DMF and CCl4 (5 eq.), DIPEA (2 eq.) and DMAP (0.1 eq.) were added. After cooling down to 0°C, dibenzyl phosphite (1.5 eq.) was added dropwise and stirring was continued at the same temperature. […]

Read-outs that look alike come from different tables or passages of the source.

Chain of STAT3 (P40763 whole entry, species assumed): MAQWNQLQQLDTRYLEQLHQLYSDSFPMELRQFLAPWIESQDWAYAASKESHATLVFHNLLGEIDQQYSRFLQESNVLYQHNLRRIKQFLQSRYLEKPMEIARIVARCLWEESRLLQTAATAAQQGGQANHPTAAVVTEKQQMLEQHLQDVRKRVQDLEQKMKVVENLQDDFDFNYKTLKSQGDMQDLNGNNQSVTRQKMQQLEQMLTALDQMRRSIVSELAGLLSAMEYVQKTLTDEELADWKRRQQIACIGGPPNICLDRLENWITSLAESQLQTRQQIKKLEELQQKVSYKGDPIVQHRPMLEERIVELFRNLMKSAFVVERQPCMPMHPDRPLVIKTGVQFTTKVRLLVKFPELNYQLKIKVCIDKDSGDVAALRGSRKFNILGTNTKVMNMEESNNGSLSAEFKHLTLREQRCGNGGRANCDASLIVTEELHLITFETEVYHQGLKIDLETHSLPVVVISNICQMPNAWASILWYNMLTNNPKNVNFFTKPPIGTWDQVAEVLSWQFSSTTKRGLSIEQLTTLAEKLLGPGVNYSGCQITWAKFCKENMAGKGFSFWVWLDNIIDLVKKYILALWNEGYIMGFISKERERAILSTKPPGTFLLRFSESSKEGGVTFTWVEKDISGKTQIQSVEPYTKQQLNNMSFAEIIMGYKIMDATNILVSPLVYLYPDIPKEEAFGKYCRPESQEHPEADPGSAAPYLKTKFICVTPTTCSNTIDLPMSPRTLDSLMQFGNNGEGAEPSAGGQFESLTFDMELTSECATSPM

In the case of `COc1cc(-c2cc(-c3cc(F)c(F)c(F)c3)cc(C(F)P(=O)(O)O)c2)cc(OC)c1OC` (stereo not drawn) [compound 12], the IC50 at STAT3 (FP assay) came out at 145 ± 6.8 µM; at STAT4 (FP assay), 99.3 ± 8 µM. For the same compound, the Ki was 71.7 ± 3.4 µM on STAT3 (FP assay, Ki calculated from IC50 (n=3)) and 49.2 ± 4 µM at STAT4 (FP assay, Ki calculated from IC50 (n=3), read-out: STAT4 Ki).
For the compound `COc1cc(-c2cc(OP(=O)(O)O)cc(-c3cc(F)c(F)c(F)c3)c2)cc(OC)c1OC` [6 b], on STAT3 (read-out: STAT3 inhibition at 200 μM), the inhibition at 200 µM was 25 ± 3%. In addition, the Ki at STAT4 was found to be 39.7 ± 3 µM.
